# Biological target: T1, SARM1 (Homo sapiens, UniProt Q6SZW1)
# T1 construct: made in house; host or cells: NRK1-HEK293T cells, transient transfection; cleared cell lysate used without purification
# T1 sequence (Q6SZW1 with tags, fused parts or gaps): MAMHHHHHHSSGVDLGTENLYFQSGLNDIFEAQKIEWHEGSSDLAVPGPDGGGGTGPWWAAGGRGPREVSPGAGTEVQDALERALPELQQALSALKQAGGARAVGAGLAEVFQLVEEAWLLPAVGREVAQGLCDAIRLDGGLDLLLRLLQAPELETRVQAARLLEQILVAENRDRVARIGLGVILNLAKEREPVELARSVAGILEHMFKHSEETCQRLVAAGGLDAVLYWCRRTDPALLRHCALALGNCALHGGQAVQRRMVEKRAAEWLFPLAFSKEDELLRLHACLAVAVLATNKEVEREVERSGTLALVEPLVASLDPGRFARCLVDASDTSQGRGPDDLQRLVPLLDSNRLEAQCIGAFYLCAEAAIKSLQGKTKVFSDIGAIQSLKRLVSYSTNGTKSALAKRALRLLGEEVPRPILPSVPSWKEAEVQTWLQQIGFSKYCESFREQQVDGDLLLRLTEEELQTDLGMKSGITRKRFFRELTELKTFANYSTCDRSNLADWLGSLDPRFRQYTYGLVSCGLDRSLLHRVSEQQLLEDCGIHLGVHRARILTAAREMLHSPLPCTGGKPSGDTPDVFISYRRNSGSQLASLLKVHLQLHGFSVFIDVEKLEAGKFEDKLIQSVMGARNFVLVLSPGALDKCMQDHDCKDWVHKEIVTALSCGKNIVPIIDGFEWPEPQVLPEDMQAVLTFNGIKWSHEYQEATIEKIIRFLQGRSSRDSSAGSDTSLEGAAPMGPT
# Assay: ARM-SAM-TIR SARM1 IC50 assay (NADase activity, NAD+ cleavage, RapidFire mass spectrometry)
# Assay type: biochemical
# Details: ARM-SAM-TIR lysate 5 μg/mL, 2 h pre-incubation with compound at room temperature, 5 μM NAD+, 2 hr incubation
# Experimental: This Example describes an assay of ARM-SAM-TIR NADase activity and use of this assay to measure the efficacy of compounds of Formula I/II to block SARM1 mediated NAD+ cleavage. This assay was optimized in such a way as to characterize the efficacy of the compounds in Formula I/I to inhibit SARM1 activity and to calculate an IC50 value for each compound. This assay makes use of full length SARM1, which encompasses the ARM, SAM and TIR domains. […] NRK1-HEK293T cells were seeded onto 150 cm^2 plates at 20×10^6 cells per plate. The next day, the cells were transfected with […] ARM-SAM-TIR expression plasmid, SEQ ID NO: 1. The cultures were supplemented with 1 mM NR at time of transfection to minimize toxicity from ARM-SAM-TIR overexpression. Forty-eight hours after transfection, cells were harvested, pelleted by centrifugation at 1,000 rpm (Sorvall ST 16R centrifuge, Thermo Fisher), and washed once with cold PBS (0.01 M phosphate buffered saline NaCl 0.138 M; KCl 0.0027 M; pH 7.4). The cells were resuspended in PBS with protease inhibitors (cOmplete™ protease inhibitor cocktail, Roche product #11873580001) and cell lysates were prepared by sonication (Branson Sonifer 450, output=3, 20 episodes of stroke). The lysates were centrifuged (12,000×g for 10 min at 4° C.) to remove cell debris and the supernatants (containing ARM-SAM-TIR protein) were stored at −80° C. for later use in the in vitro ARM-SAM-TIR NADase assay (see below). Protein concentration was determined by the Bicinchoninic (BCA) method and used to normalize lysate concentrations. The enzymatic assay was performed in a 384-well polypropylene plate in Dulbecco's PBS buffer in a final assay volume of 20 μL. […] The reaction was initiated by addition of 5 μM final assay concentration of NAD+ as substrate. After a 2 hr room temperature incubation, the reaction was terminated with 40 μL of stop solution of 7.5% trichloroactetic acid in acetonitrile. The NAD+ and ADPR concentrations were analyzed by a RapidFire High Throughput Mass Spectrometry System (Agilent Technologies, Santa Clara, CA) using an API4000 triple quadrupole mass spectrometer (AB Sciex Framingham, MA).
compound,measurement,value
O=C(NCc1ccc(Cl)cc1)c1nccc2c(-c3ccncc3)n[nH]c12 [Example 14],IC50,< 100 nM
C[C@@H](NC(=O)c1cccc2c(-c3ccncc3)n[nH]c12)c1ccc(Cl)cc1 [Example 15],IC50,100 to 1000 nM
O=C(NCc1ccc(Cl)c(F)c1)c1cccc2c(-c3ccncc3)n[nH]c12 [Example 16],IC50,< 100 nM
O=C(NCc1ccc(Cl)s1)c1cccc2c(-c3ccncc3)n[nH]c12 [Example 17],IC50,< 100 nM
O=C(NCc1ccc(Cl)cc1)c1cccc2c(-c3cnc[nH]3)n[nH]c12 [Example 18],IC50,> 10000 nM
O=C(NCc1ccc(Cl)cc1)c1cccc2c(-c3cncs3)n[nH]c12 [Example 19],IC50,> 10000 nM
Cn1cncc1-c1n[nH]c2c(C(=O)NCc3ccc(Cl)cc3)cccc12 [Example 20],IC50,> 10000 nM
O=C(NCc1ccc(Cl)cc1)c1cccc2c(-c3cnco3)n[nH]c12 [Example 21],IC50,> 10000 nM
Cc1ccc(C(=O)NCc2ccc(Cl)nc2)c2[nH]nc(-c3ccncc3)c12 [Example 24],IC50,1010 to 5000 nM
Cc1cc(C(=O)NCc2ccc(Cl)nc2)c2[nH]nc(-c3ccncc3)c2c1 [Example 25],IC50,100 to 1000 nM

# From patent US12435084B2, “Indazole derivatives as inhibitors of SARM1” (Disarm Therapeutics, Inc., priority 2020, dated 2025)
